Source: US8163793B2, “Proline derivatives” (Hoffman-La Roche Inc., priority 2009, dated 2012)
Counter-ions that a name gives are not always drawn.

Key:
[1] = target: Cathepsin S (UniProt P25774); assay: Cathepsin enzyme inhibition assay (fluorogenic peptide substrate Z-Val-Val-Arg-AMC), Cathepsin S; format: biochemical, human and mouse; details: enzyme 1 nM, substrate 20 μM, pH 6.5; read-out: CatS IC50
In short: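 Human or mouse cathepsin S (1 nM) was run in 100 mM potassium phosphate pH 6.5 with 5 mM EDTA, 0.001% Triton X-100 and 5 mM DTT. The rise in AMC fluorescence from cleavage was measured, and IC50 values were calculated by standard methods and expressed in μM.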

[2] = target: Cat L (UniProt P07711); assay: Cathepsin enzyme inhibition assay (fluorogenic peptide substrate Z-Val-Val-Arg-AMC), Cathepsin L; format: biochemical, human and mouse; details: enzyme 1 nM, substrate 20 μM, pH 6.5; read-out: CatL IC50
In short: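 Cathepsin L at 1 nM was mixed with compound, then started with 20 μM Z-Val-Val-Arg-AMC in pH 6.5 potassium phosphate with EDTA, Triton X-100 and 5 mM DTT. AMC fluorescence (ex 360/em 465 nm) was followed over 20 min. IC50 is given in μM.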

Structure (SMILES)	IC50 [1] [nM]	IC50 [2] [nM]
CC(C)(C)OC(=O)N1C[C@H](S(=O)(=O)c2ccc(OCC(F)(F)F)cc2Cl)C[C@H]1C(=O)NC1(C#N)CC1 [Example 171, (2S,4R)-4-[2-Chloro-4-(2,2,2-trifluoro-ethoxy)-benzenesulfonyl]-2-(1-cyano-cyclopropylcarbamoyl)-pyrrolidine-1-carboxylic acid tert.-butyl ester]	7	≥ 25000
COC(=O)c1ccc(C(=O)N2C[C@H](S(=O)(=O)c3ccccc3C(F)(F)F)C[C@H]2C(=O)NC2(C#N)CC2)cc1 [Example 118, 4-[(2S,4R)-2-(1-Cyano-cyclopropylcarbamoyl)-4-(2-trifluoromethyl-benzenesulfonyl)-pyrrolidine-1-carbonyl]-benzoic acid methyl ester]	0.9	≥ 25000
Cc1cc(Cl)ccc1S(=O)(=O)[C@H]1CN[C@H](C(=O)NC2(C#N)CC2)C1 [Example 50, (2S,4R)-4-(4-Chloro-2-methyl-benzenesulfonyl)-pyrrolidine-2-carboxylic acid (1-cyano-cyclopropyl)-amide Hydrochloride]	4.4	8770
C[C@H](Oc1ccc(S(=O)(=O)[C@@H]2C[C@@H](C(=O)NC3(C#N)CC3)N(C(=O)C(C)(C)C)C2)c(Cl)c1)C(F)(F)F [Example 203, (2S,4R)-4-[2-Chloro-4-((S)-2,2,2-trifluoro-1-methyl-ethoxy)-benzenesulfonyl]-1-(2,2-dimethyl-propionyl)-pyrrolidine-2-carboxylic acid (1-cyano-cyclopropyl)-amide]	0.8	9330
N#CC1(NC(=O)[C@@H]2C[C@@H](S(=O)(=O)c3ccccc3C(F)(F)F)CN2)CC1 [Example 43, (2S,4R)-4-(2-Trifluoromethyl-benzenesulfonyl)-pyrrolidine-2-carboxylic acid (1-cyano-cyclopropyl)-amide]	2.2	≥ 25000
N#CC1(NC(=O)[C@@H]2C[C@@H](S(=O)(=O)c3ccccc3C(F)(F)F)CN2C(=O)C2(c3ccc(Cl)cc3)CCC2)CC1 [Example 360, (2S,4R)-1-[1-(4-Chloro-phenyl)-cyclobutanecarbonyl]-4-(2-trifluoromethyl-benzenesulfonyl)-pyrrolidine-2-carboxylic acid (1-cyano-cyclopropyl)-amide]	0.185	1180

Further lines, results first:

IC50 [1] [nM]	IC50 [2] [nM]	Structure (SMILES)
1.15	3020	Cc1cc(N2C[C@H](S(=O)(=O)c3ccc(N4CC(F)(F)C4)cc3Cl)C[C@H]2C(=O)NC2(C#N)CC2)n(C2CCOCC2)n1 [Example 464, (2S,4R)-4-(2-chloro-4-(3,3-difluoroazetidin-1-yl)phenylsulfonyl)-N-(1-cyanocyclopropyl)-1-(3-methyl-1-(tetrahydro-2H-pyran-4-yl)-1H-pyrazol-5-yl)pyrrolidine-2-carboxamide]
100	≥ 25000	N#CCNC(=O)[C@@H]1C[C@@H](S(=O)(=O)c2ccccc2Cl)CN1C1COC1 [Example 63, (2S,4R)-4-(2-Chloro-benzenesulfonyl)-1-oxetan-3-yl-pyrrolidine-2-carboxylic acid cyanomethyl-amide]
0.37	1680	N#CC1(NC(=O)[C@@H]2C[C@@H](S(=O)(=O)c3ccc(OCC(F)(F)F)cc3Cl)CN2C(=O)C2(c3ccc(Cl)cc3)CCCCC2)CC1 [Example 314, (2S,4R)-1-[1-(4-Chloro-phenyl)-cyclohexanecarbonyl]-4-[2-chloro-4-(2,2,2-trifluoro-ethoxy)-benzenesulfonyl]-pyrrolidine-2-carboxylic acid (1-cyano-cyclopropyl)-amide]
1.75	4030	Cn1nc(C(C)(C)C)cc1C(=O)N1C[C@H](S(=O)(=O)c2ccc(OCC(F)(F)F)cc2Cl)C[C@H]1C(=O)NC1(C#N)CC1 [Example 386, (2S,4R)-1-(5-tert-Butyl-2-methyl-2H-pyrazole-3-carbonyl)-4-[2-chloro-4-(2,2,2-trifluoro-ethoxy)-benzenesulfonyl]-pyrrolidine-2-carboxylic acid (1-cyano-cyclopropyl)-amide]
